Here are results for five compounds from patent US5010107A, “Method and composition for achieving anticarcinogenic activity” (priority 1989, dated 1991).

One data set concerns β-glucuronidase. The following applies: cells, blood, cited from earlier work.
The conditions of data set [1]: cited from earlier work.
The subject of the next data set is carcinogenesis. The following applies: higher doses of CGT; cited from earlier work.
The subject of data set [2] is 7,12-dimethylbenz(a)anthracene-induced mammary tumorigenesis. Particulars: cited from earlier work.
The subject of data set [3] is 7,12-dimethylbenz(a)anthracene-induced mammary tumors. Nature of the data set: DMBA-induced mammary tumor formation in rats fed CGT, HPR or both. Type of data set: in vivo, female Sprague Dawley rats. The following applies: for Rats with tumors / Total No. tumors: 20 rats. As for the experimental part:
They were maintained on the diets for approximately 4 mos., and were examined (palpated) for mammary tumors weekly. […] The retinoid (HPR) was first dissolved in 25 ml of a vehicle consisting of ethanol-tricaprylin-6% α-tocopherol, then thoroughly mixed with powdered rat chow.

Data set [4] concerns established DMBA-induced mammary tumors. Nature of the data set: Growth of established DMBA-induced mammary tumors. The format is in vivo, female Sprague Dawley rats. The following applies: 2 mmol/kg diet; within 5 to 10 days. As for the experimental part:
(§1) When higher doses (2 mmol/kg diet) of HPR were used, growth arrest was followed within 5 to 10 days by 30% regression of the DMBA-induced mammary tumors. Also, HPR (0.1 uM) inhibited the […] growth of the human breast cancer cell line (MCF-7) to 50% of the control within 7 days.

The test system of data set [5] is cellular cAMP (cyclic AMP) and histone kinases. The following applies: cited from earlier work.
For data set [6], the system named is established mammary tumors. Nature of the data set: Growth of established mammary tumors in CD8 F1 mice. Type of data set: in vivo. The method, then:
as §1

Read-outs that look alike come from different tables or passages of the source.

Take 2,4-di-O-acetyl-D-glucaro-1,4-lactone: the “inhibition of β-glucuronidase” value with β-glucuronidase (urine, intestine and liver) is “effective as inhibitors of β-glucuronidase”. The “release of D-glucaro-1,4-lactone (GL) when fed” value (from here on “release of D-glucaro-1,4-lactone”) in data set [1] (in vivo) was “slowly release D-glucaro-1,4-lactone (GL)”.
For `O=C([O-])[C@@H](O)[C@@H](O)[C@H](O)[C@@H](O)C(=O)[O-].[Ca+2]` [CGT, calcium glucarate], the “inhibition of β-glucuronidase” value in the data set on β-glucuronidase (urine, intestine and liver) was “effective as inhibitors of β-glucuronidase”. Further, in the data set on carcinogenesis, the “effectiveness against lung, colon and mammary carcinogenesis” value was “effective against lung, colon and mammary carcinogenesis”. Moreover, the “tumor induction relative to controls” value in data set [2] (4% CGT diet, started two weeks after carcinogen, by 28 weeks) is 30%. In addition, the “food consumption and weight gain” value in data set [2] (CGT-supplemented diet vs normal chow diet) is “ate quantities of food and had weight gain identical to those on the normal chow diet”. Besides, the “steady-state level of sex hormones” value in data set [2] (anti-promotional effect of CGT, probable cause) is on record as “reduction in the steady-state level of sex hormones”. Moreover, the “release of D-glucaro-1,4-lactone” value in data set [1] (fed) is “slowly release D-glucaro-1,4-lactone (GL)”. In data set [3] (1.0% CGT alone), the “inhibition of tumor incidence” value came out at 20% and the inhibition of tumors/rat turned out to be 9%. In data set [3] (1% CGT in chow diet), the “Tumor Incidence” value was 55, the Tumors per rat is 1.0, the Rats with tumors is recorded as 11 and the “Total No. tumors” value is listed as 20. For the same compound, in data set [3] (2% CGT in chow diet), the “Tumor Incidence” value worked out at 55, the Tumors per rat is reported as 1.0, the Rats with tumors was 11 and the “Total No. tumors” value was found to be 20. In data set [3] (4% CGT in chow diet), the “Tumor Incidence” value is reported as 35, the Tumors per rat is 0.5, the Rats with tumors was determined as 7 and the “Total No. tumors” value was determined as 10.
On to `O=C(O)[C@@H](O)[C@H]1OC(=O)[C@H](O)[C@H]1O` [GL, D-glucaro-1,4-lactone], for which the “inhibition of β-glucuronidase” value with β-glucuronidase (urine and intestine) is “potent inhibitor of β-glucuronidase”.
As for `CC1=C(/C=C/C(C)=C/C=C/C(C)=C/C(=O)Nc2ccc(O)cc2)C(C)(C)CCC1` [HPR, N-(4-hydroxyphenyl)retinamide], in data set [4], the “regression of the DMBA-induced mammary tumors, following growth arrest” value was 30%. Moreover, the “level of cellular cAMP and of histone kinases” value in data set [5] is “elevate the level of cellular cAMP (cyclic AMP) and of histone kinases”. Further, in data set [3] (0.75 mmol/kg HPR alone), the “inhibition of tumor incidence” value was found to be 15% and the inhibition of tumors/rat is on record as 9%. This compound also registered a Rats with tumors in data set [3] (0.75 mmol/kg diet HPR) of 12. For the same compound, in data set [6], the “inhibition of tumor growth” value is recorded as 50%.
For the compound `O=C(O)[C@@H](O)[C@@H](O)[C@H](O)[C@@H](O)C(=O)[O-].[K+]` [potassium hydrogen glucarate], the “inhibition of β-glucuronidase” value in the data set with β-glucuronidase (urine, intestine and liver) is given as “effective as inhibitors of β-glucuronidase”. In addition, the “release of D-glucaro-1,4-lactone” value in data set [1] (fed) is listed as “slowly release D-glucaro-1,4-lactone (GL)”.
